What all share (format): in vivo, mice
For one assay, the system named is SCP28. The assay is described as follows: CC3 immunofluorescent staining of GFP-positive tumor cells in mouse bone sections. The note with it: after two rounds of treatment. How it is done: FIG. 7. Pro-survival effect of osteoblast Jagged1 on cancer cells can be blocked by 15D11. (A) 3-D tumorsphere culture of MCF7, SCP28, and SUM1315-M1B1 cells, alone or in co-cultured with osteoblast cells, were treated with indicated concentrations of cisplatin or docetaxel. Two days after the chemotherapy, the surviving tumor spheres were counted under the fluorescent microscope. n=3. *p<0.05 by Student's t-test. (B) Cell culture of SCP28 cells alone or in co-culture with MC3T3-E1 pre-osteoblast cells were treated with PBS control or cisplatin. Protein samples were collected at 6 hr, 24 hr, and 72 hr later. Cleaved PARP and cleaved caspase-3 were determined by immunoblotting. # marks full length PARP and * marks cleaved PARP. […] Hind limb bones were fixed and cryo-sectioned for IF staining against CC3 for apoptotic cells and GFP for tumor cells (E), and CC3 positive apoptotic cells among GFP-positive tumor cells were quantified in F. Size bar: 25 μm. n=5. **p<0.01 by Student's t-test. […] Tumor cells in the bone were quantified based on BLI imaging at Day 1 and Day 4. […]
Hindlimb bones were excised from mice at the end point of each experiment, immediately after the last BLI time point. […] For quantitative analysis of lesion area, a 10× objective was used to focus on the tumor region of interest and images were acquired using the AxioCamICc3 camera set to an exposure of around 100 ms. […]

A further assay concerns SCP28 cells. The assay is described as follows: Parental SCP28 bone metastasis, late treatment with 15D11 and paclitaxel. As to conditions: low endogenous Jagged1. The text has this:
FIG. 4. Synergistic inhibition of bone metastasis by SCP28 with combined treatment of 15D11 and chemotherapy. (A) Schematic illustration of the experimental procedure. (B) Quantification of bone metastasis burden based on BLI imaging. n=10. *p<0.05 and **p<0.01 by Mann-Whitney test. (C) Representative BLI images and X-ray images at week 6. (D) Representative H&E and TRAP staining images from the experiment. (E) Quantification of osteolytic lesions based on X-ray images. n=10. **p<0.01 by Student's t-test. (F) Quantification of TRAP+ osteoclasts from decalcified histological bone sections of hind limbs from mice, n=10. **p<0.01 by Student's t-test. Size bar: 100 μm for H&E and 50 μm for TRAP.
The strong inhibitory effect of the combined treatment on bone metastasis could potentially be explained by the combined effect of blocking Jagged1-dependent stromal engagement by 15D11 and cytotoxicity of paclitaxel to tumor cells. […]
Mice were purchased from Jackson laboratory. […] Spontaneous bone metastasis was monitored by X-ray imaging. […] Bone metastasis burden was monitored by weekly BLI and X-ray imaging. At the experimental endpoint, mice were euthanized for bone histology analysis and half of the bone samples were used for μCT imaging and bone density quantification.

The next assay concerns SCP28-Jagged1 cells. The assay is described as follows: SCP28-Jagged1 bone metastasis, late treatment with 15D11 and paclitaxel. As to conditions: in words.

The results in this text go back to patent US20200237909A1, “METHODS OF TREATING OR PREVENTING BREAST CANCER METASTASES USING ANTIBODIES TO JAGGED1 AND CHEMOTHERAPEUTIC AGENTS” (The Trustees of Princeton University, priority 2017, published 2020).

Description for SCP28-Jagged1 cells: To evaluate the combinatorial effect of 15D11 with conventional chemotherapy, we treated bone metastasis generated by SCP28-Jagged1 cells with 15D11 and paclitaxel, using the late treatment protocol (treatment initiated 1 week after IC injection) (FIG. 3A). […] Mice were treated with IgG (as negative control), 15D11, paclitaxel, or both, one week after IC injection of SCP28-Jagged1 to establish bone metastases.
For experimental bone metastasis, three models were used using intra-cardiac (IC), intra-iliac artery (IIA), and intra-tibia (i.t.) injection methods, as previously described (Andersen et al., 2003; Sethi et al., 2011; Wang et al., 2015). Bone metastasis burden was monitored by weekly BLI and X-ray imaging. At the experimental endpoint, mice were euthanized for bone histology analysis and half of the bone samples were used for μCT imaging and bone density quantification.
The initial treatment is either one day before tumor cell injection or one week after tumor cell injection as described in each experiment. For IgG or 15D11 antibody treatment, mice were i.p. injected at the dosing of 10 mg/kg, twice a week. […] For paclitaxel treatment, paclitaxol powder was first dissolved in 95% ethanol, sonicated and shaken overnight, before mixing 1:1 with cremophor (Sigma Catalog#:769193-1KG) to reach the final concentration of 20 mg/ml. […]

Turning to `CC(=O)O[C@H]1C(=O)[C@@]2(C)[C@H]([C@H](OC(=O)c3ccccc3)[C@]3(O)C[C@H](OC(=O)[C@H](O)[C@@H](NC(=O)c4ccccc4)c4ccccc4)C(C)=C1C3(C)C)[C@]1(OC(C)=O)CO[C@@H]1C[C@@H]2O` [paclitaxel], the “CC3 positive tumor cells” value in the assay on SCP28 is given as “substantial numbers of tumor cells”. In addition, the bone metastasis burden entry in the assay with SCP28 cells is “only slightly reduced metastatic burden”. The “tumor burden at the end point” value in the assay on SCP28-Jagged1 cells is recorded as “only a mild reduction of tumor burden”.
